Assay results taken from article PMC5773580, “A synthetic combinatorial approach to disabling deviant Hedgehog signaling” (Scientific Reports, 2018).
Values joined by “and” are separate entries in the source; they are usually repeats but may differ in a detail not shown here. Identical values can stand only once.

Key:
[1] = test system: nuclear HDAC activity (Ac-H3) in NIH-3T3 cells; test: Acetylation assay, Western blotting for acetylated histone 3 (Ac-H3); type: cell-based; settings: 48hrs, Western blot
Description: For analyzing acetylation status of histone 3 and tubulin, NIH3T3 cells were grown to confluence in 6-well plates. After 48hrs of treatment with indicated chemicals, cells were lysed in RIPA buffer or 1% NP40/phosphate buffered saline/protease inhibitors (SIGMA, #S8820), the lysate cleared using a microcentrifuge, then 6 × sample loading buffer (Bioland Scientific) added to the supernatant. Proteins were separated on SDS-PAGE (BioRad Criterion TGX Precast Gels). Antibodies used for analyzing the blots were: acetylated tubulin (SIGMA, #T6793), tubulin, acetyl-histone H3 (Lys23), and histone H3 (Cell Signaling Technology, #2125 S, #8848 and #9717, respectively). Chemiluminescence was detected using a Li-COR Odyssey Imaging System.

HDAC6 = target: T1, HDAC6 (Homo sapiens, UniProt Q9UBN7); test: In vitro HDAC profiling (deacetylation assay), HDAC6; type: biochemical; settings: for HDAC Activity (Fluorescent counts): Repeat1/Repeat 2
T1 construct: purchased BPS Bioscience #50051-11
T1 sequence (Q9UBN7 1-1215): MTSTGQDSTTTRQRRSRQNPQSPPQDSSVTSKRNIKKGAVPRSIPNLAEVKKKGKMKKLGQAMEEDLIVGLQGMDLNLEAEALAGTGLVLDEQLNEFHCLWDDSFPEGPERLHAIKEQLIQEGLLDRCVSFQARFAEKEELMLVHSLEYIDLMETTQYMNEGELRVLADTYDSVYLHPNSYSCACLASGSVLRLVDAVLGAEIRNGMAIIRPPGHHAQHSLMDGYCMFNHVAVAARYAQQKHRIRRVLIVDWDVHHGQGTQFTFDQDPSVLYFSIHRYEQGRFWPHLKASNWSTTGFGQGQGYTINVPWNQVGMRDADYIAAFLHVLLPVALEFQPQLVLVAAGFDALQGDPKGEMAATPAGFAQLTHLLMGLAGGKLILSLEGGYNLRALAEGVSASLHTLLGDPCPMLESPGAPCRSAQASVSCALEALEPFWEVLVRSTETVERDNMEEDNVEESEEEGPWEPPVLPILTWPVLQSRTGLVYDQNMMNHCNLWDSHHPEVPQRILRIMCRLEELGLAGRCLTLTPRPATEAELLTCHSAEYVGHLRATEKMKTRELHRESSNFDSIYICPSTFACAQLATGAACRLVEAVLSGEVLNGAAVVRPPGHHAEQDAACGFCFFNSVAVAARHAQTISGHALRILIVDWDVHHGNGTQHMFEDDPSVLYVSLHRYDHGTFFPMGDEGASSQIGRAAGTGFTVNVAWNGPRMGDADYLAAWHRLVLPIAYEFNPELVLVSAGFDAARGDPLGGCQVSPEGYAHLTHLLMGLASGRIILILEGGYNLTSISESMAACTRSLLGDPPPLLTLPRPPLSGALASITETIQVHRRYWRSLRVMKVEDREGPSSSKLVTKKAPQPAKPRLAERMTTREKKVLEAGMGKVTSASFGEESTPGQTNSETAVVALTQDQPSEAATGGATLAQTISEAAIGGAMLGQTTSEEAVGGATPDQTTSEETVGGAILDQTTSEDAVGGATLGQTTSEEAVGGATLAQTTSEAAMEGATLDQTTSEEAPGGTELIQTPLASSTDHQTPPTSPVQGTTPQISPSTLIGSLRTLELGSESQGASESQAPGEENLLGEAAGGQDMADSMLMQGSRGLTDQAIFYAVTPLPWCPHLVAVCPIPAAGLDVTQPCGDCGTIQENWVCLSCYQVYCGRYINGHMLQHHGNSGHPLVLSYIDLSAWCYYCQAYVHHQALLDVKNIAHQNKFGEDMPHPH
Description: HDAC profiling was performed at BPS Bioscience (San Diego, CA). All of the compounds are dissolved in DMSO. A series of dilutions of the compounds were prepared with 10% DMSO in HDAC assay buffer (#50031) and 5 µl of the dilution was added to a 50 µl reaction so that the final concentration of DMSO is 1% in all of reactions. All of the enzymatic reactions were conducted in duplicate at 37 °C for 30 mins, except that the enzyme reactions for HDAC11 were at room temperature for 3 hrs. All of the reactions were performed in a 50 µl mixture containing HDAC assay buffer, 5 µg BSA, an HDAC substrate [HDAC Substrate 3 (BPS number 50037) or HDAC Class 2a Substrate 1 (BPS number 50040)], an HDAC enzyme (#50051-11) and a test compound. After enzymatic reactions, 50 μl of HDAC Developer (#50030) was added to each well and the plate was incubated at room temperature for an additional 20 mins. Fluorescence intensity was measured at an excitation of 360 nm and an emission of 460 nm using a Tecan Infinite M1000 microplate reader. HDAC activity assays were performed in duplicates at each concentration. The fluorescent intensity data were analyzed using the computer software, Graphpad Prism. In the absence of the compound, the fluorescent intensity (Ft) in each data set was defined as 100% activity. In the absence of HDAC, the fluorescent intensity (Fb) in each data set was defined as 0% activity. The percent activity in the presence of each compound was calculated according to the following equation: %activity = (F − Fb)/(Ft − Fb), where F = the fluorescent intensity in the presence of the compound. The values of % activity versus a series of compound concentrations were then plotted using non-linear regression analysis of Sigmoidal dose-response curve generated with the equation Y = B + (T − B)/1 + 10((LogIC50 − X) × Hill Slope), where Y = percent activity, B = minimum percent activity, T = maximum percent activity, X = logarithm of compound and Hill Slope = slope factor or Hill coefficient. The IC50 value was determined by the concentration causing a half-maximal percent activity.

SMILES: O=C(CCCCCCC(=O)Nc1ccc(Cl)c(C(=O)Nc2ccc(NC(=O)c3cc(Cl)ccc3Cl)cc2)c1)NO [IHR-SAHA]
- HDAC inhibitory activity, accumulation of acetylated histone 3 (ratio Ac-H3 to total H3) [1]: retain HDAC inhibitory activity
- HDAC Activity (Fluorescent counts) (HDAC6; HDAC6, WW01 0 Log nM): 17916 Fluorescent counts and 17639 Fluorescent counts
- HDAC Activity (Fluorescent counts) (HDAC6; HDAC6, WW01 0.5 Log nM): 16713 Fluorescent counts and 17763 Fluorescent counts
- HDAC Activity (Fluorescent counts) (HDAC6; HDAC6, WW01 1 Log nM): 14605 Fluorescent counts and 14491 Fluorescent counts
- HDAC Activity (Fluorescent counts) (HDAC6; HDAC6, WW01 1.5 Log nM): 11120 Fluorescent counts and 11971 Fluorescent counts
- HDAC Activity (Fluorescent counts) (HDAC6; HDAC6, WW01 2 Log nM): 7800 Fluorescent counts and 7793 Fluorescent counts
- HDAC Activity (Fluorescent counts) (HDAC6; HDAC6, WW01 2.5 Log nM): 5185 Fluorescent counts and 5345 Fluorescent counts
- HDAC Activity (Fluorescent counts) (HDAC6; HDAC6, WW01 3 Log nM): 4209 Fluorescent counts and 4174 Fluorescent counts
- HDAC Activity (Fluorescent counts) (HDAC6; HDAC6, WW01 3.5 Log nM): 3548 Fluorescent counts and 3756 Fluorescent counts
- HDAC Activity (Fluorescent counts) (HDAC6; HDAC6, WW01 4 Log nM): 3616 Fluorescent counts and 3660 Fluorescent counts
- HDAC Activity (Fluorescent counts) (HDAC6; HDAC6, WW01 -0.5 Log nM): 18352 Fluorescent counts and 17865 Fluorescent counts
- IC50 (HDAC6; in vitro deacetylation assay, duplicates): 47 nM
